Assay results taken from patent US8119640B2, “Hedgehog pathway antagonists methods of use” (The Board of Trustees of the Leland Stanford Junior …, priority 2008, dated 2012).

Columns and labels:
Hh pathway = assay: Su(fu)-/- fibroblasts assay for Hh pathway activation; format: cell-based; conditions: for % Inhibition Su(fu)-/- MEFs: Gli-dependent firefly luciferase, 15 μM HPI-1, 20 μM HPI-2, 30 μM HPI-3, 30 μM HPI-4; for Toxicity noted in Su(fu)-/- MEFs: printed instead of % inhibition
Procedure: Su(fu)^−/− fibroblasts assay for Hh pathway activation. […] After 24 h, the cells were transfected with Fugene HD (Roche), 8xGliBS-FL (95 ng/well), phRLSV40 (5 ng/well; Promega), and pEGFP-C1 (300 ng/well as a carrier; Clontech) according to the manufacturer's protocols. […] The resulting firefly and Renilla luciferase activities were measured using a dual luciferase kit and Veritas microplate luminometer.

[1] = test system: Math1-cre:SmoM2 cerebellar GNPs; assay: Math1-cre:SmoM2 cerebellar GNP proliferation; format: cell-based, mice; conditions: for Proliferation of SmoM2-expressing GNPs (histone H3 phosphorylation): HPIs 10 μM, cyclopamine 5 μM, 24 h
Procedure: Analysis of Math1-cre:SmoM2 cerebellar GNP proliferation. To generate Math1-cre:SmoM2 tumors (11), a Math1-cre driver was used to conditionally express an activated Smo (SmoM2) allele. The Gt(ROSA)26Sortm1 (Smo/EYFP)Amc/J) mouse line was obtained from Jackson Laboratory (Bar Harbor, ME). […] Primary cultures from Math1-cre:SmoM2 tumors were established by triturating tumor tissue and plating the dissociated cells onto poly-D-ornithine-coated plates in DMEM-F-12 with N2 supplement, 25 mM KCI, and antibiotics. After culturing the cells for 24 h, they were treated with individual HPIs ([…]) for 24 h. Cell proliferation was then quantified by immunocytochemistry, and the expression of cyclin D1 and Gli1 were assessed by immunoblotting and RT-PCR, respectively. For immunocytochemistry, the primary cultures were fixed in 4% paraformaldehyde for 30 min at room temperature. […] Immunofluorescently stained cultures were imaged using a Nikon Eclipse E600 microscope equipped with a 20×objective. Approximately 30,000 cells were analyzed for each experimental condition. To detect proteins by immunoblotting, non-denaturing lysates were prepared from Math1-cre:SmoM2 cultures using lysate buffer (50 mM HEPES, pH 7.4, containing 150 mM NaCl, 1 mM EDTA, 2.5 mM EGTA, 0.1% Triton X-100, 10% glycerol, and 1 mM DTT), resolved on a 10% SDS-PAGE gel, and transferred onto a PVDF membrane. The membrane was incubated overnight at 4° C. with anti-cyclin D1 (Ab-3, Neomarkers; 1:1,000 dilution) or anti-β-tubulin (T4026, Sigma; 1:5,000 dilution) antibodies. […] For RT-PCR analyses, total RNA from Math1-cre:SmoM2cultures was extracted with TRIzol (Invitrogen) according to the manufacturer's protocol. The RNA was purified further […] with an RNeasy kit (Qiagen), and then reverse-transcribed with an Advantage RT-for-PCR Kit (Clontech) and random hexamer primers. […] Typical PCR conditions were as follows: an initial denaturation at 95° C. for 1 min followed by 28 cycles of denaturation at 94° C. for 45 sec, annealing at 60° C. for 45 sec, extension at 70° C. for 2 min, and a final extension at 72° C. for 7 min. The resulting PCR products were analyzed on 2% agarose gels.

Smo [2] = target: T1, Smo (Mus musculus, UniProt P56726); assay: FRET assay for Smo multimerization (Smo-CFP/Smo-YFP); format: cell-based, murine; design: expressed in transfected cells; host or cells: NIH-3T3; conditions: 10 μM HPIs; for Shh-induced fold change in Smo-CFP/Smo-YFP FRET: 10 μM cyclopamine, 500 nM SAG
Procedure: FRET assay for Smo multimerization. […] The cells were washed with PBS buffer, fixed with 4% paraformaldehyde for 20 min, and mounted on slides in 80% glycerol. Fluorescence signals were acquired with the 100× objective of a Zeiss LSM510 confocal microscope with the following conditions: CFP was excited by 458-nm light and the emission was collected through a BP 480-520-nm filter. YFP was excited by 514-nm light and the emission was collected through a BP 535-590-nm filter. The CFP signal was obtained before and after photobleaching YFP(CFPBP and CFPAP, respectively) using the full power of the 514-nm laser line for 1-2 min at the top half of each cell, leaving the bottom half unbleached as an internal control. The CFP fluorescence intensity was analyzed using Metamorph software (Universal Imaging Corp.), and the energy transfer efficiency was calculated using the formula: FRET %=((CFPAP−CFPBP)/CFPAP)×100. Photobleached areas in 11-19 cells were analyzed for each experimental condition.
Target sequence in this assay (P56726 33-793): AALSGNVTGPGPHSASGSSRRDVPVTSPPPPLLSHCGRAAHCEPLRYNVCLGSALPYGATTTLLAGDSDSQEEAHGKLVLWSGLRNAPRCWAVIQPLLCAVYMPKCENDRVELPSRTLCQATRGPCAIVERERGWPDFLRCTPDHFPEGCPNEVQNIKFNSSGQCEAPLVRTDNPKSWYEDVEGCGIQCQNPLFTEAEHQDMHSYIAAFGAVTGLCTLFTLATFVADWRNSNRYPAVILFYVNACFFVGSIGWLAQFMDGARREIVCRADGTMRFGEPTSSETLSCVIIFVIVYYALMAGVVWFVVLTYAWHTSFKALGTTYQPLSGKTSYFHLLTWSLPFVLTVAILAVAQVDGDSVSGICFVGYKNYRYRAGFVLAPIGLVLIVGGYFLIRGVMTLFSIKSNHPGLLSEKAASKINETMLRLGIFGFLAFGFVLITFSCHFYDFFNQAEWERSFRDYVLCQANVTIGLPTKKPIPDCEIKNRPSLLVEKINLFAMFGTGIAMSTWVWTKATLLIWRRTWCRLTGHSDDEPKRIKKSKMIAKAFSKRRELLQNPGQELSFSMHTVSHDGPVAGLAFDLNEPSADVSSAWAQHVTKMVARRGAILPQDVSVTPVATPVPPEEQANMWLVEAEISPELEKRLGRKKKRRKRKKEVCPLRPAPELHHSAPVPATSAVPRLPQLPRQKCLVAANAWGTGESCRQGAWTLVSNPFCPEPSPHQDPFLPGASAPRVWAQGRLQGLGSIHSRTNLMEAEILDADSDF
Target sequence in this assay (P56726 33-793): as above

Smo [3] = target: T1, Smo; assay: BODIPY-cyclopamine/Smo binding assay; design: expressed in transfected cells; host or cells: HEK-293T; species or system murine; conditions: 5 nM BODIPY-cyclopamine, Smo-overexpressing HEK-293T cells, HPIs 20 μM
Procedure: BODIPY-cyclopamine/Smo binding assay. Smo-binding assays were conducted with BODIPY-cyclopamine and Smooverexpressing and HEK-293T cells as previously described, using a CMV-promoter based SV40 origin-containing expression construct for Smo-Myc3 (murine Smo containing three consecutive Myc epitopes at the C-terminus). […] The cells were cultured until they reached 55 to 65% confluency (14-18 h), after which they were transfected with the Smo-Myc3 expression construct and FuGENE (Roche) according to the manufacturer's protocols. 24 h after transfection, the cells were washed with phosphate-buffered saline (PBS) and cultured in DMEM containing 0.5% FBS, 5 nM BODIPY-cyclopamine, and individual HPIs (20 μM). After 30 min, 10 μM Hoescht 33342 was added to each well, and the HPIs were incubated with the cells for an additional 60 min. The cells were then washed two times with PBS buffer, mounted in Prolong Gold (Invitrogen) and immediately imaged using a DM4500B compound microscope (Leica).
Target sequence in this assay (P56726 33-793): as above

Structure (SMILES)	BODIPY-cyclopamine competition (Smo [3])	% Inhibition Su(fu)-/- MEFs (Hh pathway; 1440 min)	further results
COCCOC(=O)C1=C(C)NC2=C(C(=O)CC(c3ccccc3OC)C2)C1c1cccc(O)c1 (mixture of isomers) [Compound 8, 4-(3-Hydroxy-phenyl)-7-(2-methoxy-phenyl)-2-methyl-5-oxo-1,4,5,6,7,8-hexahydro-quinoline-3-carboxylic acid 2-methoxy-ethyl ester]	No	–	Repression of constitutive Hh pathway activity in Su(fu)-/- fibroblasts (Hh pathway): reduce Hh pathway activity in these cells to near-basal levels; % Inhibition Su(fu)-/- MEFs (Hh pathway): 80.2%; Cellular levels of cyclin D1 protein and Gli1 transcripts in GNPs [1]: reduced cellular levels of cyclin D1 protein and Gli1 transcripts; Proliferation of SmoM2-expressing GNPs (histone H3 phosphorylation) [1]: significantly inhibited the proliferation; Shh-induced fold change in Smo-CFP/Smo-YFP FRET (Smo [2]): attenuated the fold-change in Smo-CFP/Smo-YFP FRET upon Shh stimulation
N#Cc1cc2c(nc1SCC(=O)Nc1nc3ccccc3s1)CCC2 [Compound 1]	No	95.2%	–
CCCCNC(=N)C(C)c1ccc(CC(C)C)cc1 (stereo not shown) [Compound 2]	No	6.26%	–
Cc1cc(/C=c2\sc3nc4ccccc4n3c2=O)c(C)n1C(C)C [Compound 3]	No	92.8%	–
O=C(Nc1cccc2ccccc12)OC[C@@H]1CCCN2CCCC[C@H]12 [Compound 4]	No	−7.55%	–
CCC(C)NS(=O)(=O)c1ccc(Cc2ccc(S(=O)(=O)NC(C)CC)cc2)cc1 (stereo not shown) [Compound 5]	No	45.7%	–
CCOC(=O)c1cc2c(=O)n3ccccc3nc2n(C(C)C)c1=NC(=O)c1cc(OC)cc(OC)c1 [Compound 6]	No	90%	–
CCN1CCCC1CNC(=O)C1CCN(c2nc3c(C)cc(C)cc3s2)CC1 (stereo not shown) [Compound 7]	No	32.1%	–
CCOC(=O)c1cn(-c2ccccc2)nc1-c1ccc(OC)c(OC)c1 [Compound 9]	No	−26.9%	–
O=S(=O)(Nc1cc(Cl)c(Cl)cc1Cl)c1ccc(F)cc1 [Compound 10]	No	81.8%	–
OCCNc1nc(N2CCN(c3ccccc3)CC2)nc2ccccc12 [Compound 11]	No	70.7%	Proliferation of SmoM2-expressing GNPs (histone H3 phosphorylation) [1]: did not block GNP proliferation; Basal Smo-CFP/Smo-YFP FRET levels (Smo [2]): decreased basal FRET levels
CC(C)(C)N(CCNS(=O)(=O)c1ccc(-c2cc(C(F)(F)F)no2)s1)Cc1ccco1 [Compound 12]	No	–	Toxicity noted in Su(fu)-/- MEFs (Hh pathway): Toxic at 20
CN1CCN(C2Cc3ccccc3Sc3ccccc32)CC1 (stereo not shown) [Compound 13]	No	–	Toxicity noted in Su(fu)-/- MEFs (Hh pathway): Toxic at 15
CCOc1ccc2ncc(C(=O)c3ccc(C)cc3)c(N3CCCC3)c2c1 [Compound 14]	No	84.3%	–
O=C(Nc1nnc(S(=O)(=O)N2CCCCC2)s1)c1cccc(Br)c1 [Compound 15]	No	89.1%	–
CCOc1ccc(CCNc2cnnc3c(Cl)cccc23)cc1OCC [Compound 16]	No	62.1%	–
COc1ccc(OC)c2c1cc1n2CC(C)(C(=O)NC2CCCCCCC2)N(CCN(C)C)C1=O (stereo not shown) [Compound 17]	No	89.1%	Repression of constitutive Hh pathway activity in Su(fu)-/- fibroblasts (Hh pathway): reduce Hh pathway activity in these cells to near-basal levels; Proliferation of SmoM2-expressing GNPs (histone H3 phosphorylation) [1]: did not block GNP proliferation; Basal Smo-CFP/Smo-YFP FRET levels (Smo [2]): decreased basal FRET levels; Shh-induced fold change in Smo-CFP/Smo-YFP FRET (Smo [2]): attenuated the fold-change in Smo-CFP/Smo-YFP FRET upon Shh stimulation
N#CC(C(=O)c1ccc(Cl)cc1Cl)=C1NC(=O)c2ccccc2N1 [Compound 18]	No	58.5%	Cellular levels of cyclin D1 protein and Gli1 transcripts in GNPs [1]: reduced cellular levels of cyclin D1 protein and Gli1 transcripts; Proliferation of SmoM2-expressing GNPs (histone H3 phosphorylation) [1]: significantly inhibited the proliferation; Basal Smo-CFP/Smo-YFP FRET levels (Smo [2]): decreased basal FRET levels
